# Reference: patent US20040023295A1, “Methods and systems for analyzing complex biological systems” (priority 2001, published 2004)
# System: Saccharomyces cerevisiae wild type strain BY4743
# Experiment: AF1 combined gene expression and metabolite data mapped to KEGG reactions and pathways
# Assay type: cell-based
# Text: In AF1, two different technologies were utilized: gene expression analysis (for examination of mRNA expression) and metabolite analysis. […] As noted previously, existing metabolic databases may be helpful in practicing the methods and systems of the present invention, but many databases include limitations that make their use in data analysis and pathway mapping less than straightforward. […] This caveat to KEGG makes it difficult to pinpoint the correct pathway when attempting to link a gene to a specific pathway. The pathway score indicates how meaningful the mapping is, or how likely it is to be correctly indicative of the pathway involved in the perturbation under examination. […] Degree of perturbation can be calculated, for example, based on a number of standard deviations from a norm, and included in an equation such as the one shown above, so that not only the number of pathways is taken into account, but also accounts for the amount of gene transcript or compound present as compared to a control. […] KEGG links 676 compounds measured in AF1 to a total of 92 pathways. Of the 676 compounds under consideration, 77 were detected in the AF1 samples. […]
smiles,measurement,value
C[C@@H]1[C@H](O)[C@@H](C)/C=C/C=C/C=C/C=C/C=C/C=C/C=C/[C@H](O[C@@H]2O[C@H](C)[C@@H](O)[C@H](N)[C@@H]2O)C[C@@H]2O[C@](O)(C[C@@H](O)C[C@@H](O)[C@H](O)CC[C@@H](O)C[C@@H](O)CC(=O)O[C@H]1C)C[C@H](O)[C@H]2C(=O)O [Amphoteracin B],# Reactions (title: Number Of Pathways Having at Least One Enzyme and One Compound Perturbed),37
same,# Reactions Having an Enzyme and at Least One Compound Perturbed,54
